Experimental data taken from US20260166046A1, “Inhibitors of methionine aminopeptidase-2 and methods of preparation and uses thereof” (Primetime Life Sciences LLC, priority 2022, published 2026).
Read-outs that look alike come from different tables or passages of the source.

Key:
G. lamblia WB = assay: Trophozoite viability IC50 determination, Giardia assay (ATPLite); assay type: cell-based; settings: Giardia duodenalis, read-out: Cell viability values Mean IC50 (nM) G. lamblia WB
Protocol: (§1) Giardia cultures: Trophozoites of G. lamblia isolates WB and GS were grown anaerobically in borosilicate glass screw-cap culture tubes (Fisher Scientific) at pH 7.0 in modified TYI-S-33 medium. The medium was supplemented with 10% heat-inactivated bovine serum (Sigma-Aldrich) and 0.05% bovine bile (Sigma-Aldrich). To attain low-oxygen-tension conditions, the tubes were filled to 85 to 90% of their total volume capacity and incubated without shaking at 37° C. Subcultures (2×10^5 trophozoites per tube) were made three times a week. Detachment of trophozoites for inoculation was achieved by chilling the cultures on ice for 20 min. Culturing and detachment of Metronidazole-resistant G. lamblia Assemblage A 713M3 and assemblage B 1279-M1 trophozoites followed the same protocol, except that the growth medium was supplemented with metronidazole gradually increasing the concentration to 10 μM. Amebae cultures: E. histolytica strain HM1:IMSS trophozoites were grown at 37° C. in TYI-S-33 medium supplemented with penicillin (100 U/mL) and streptomycin sulfate (100 μg/mL). Trophozoites were grown anaerobically in borosilicate tubes and subcultures were made 1-2 times a week. Trophozoites were detached for inoculation by chilling the cultures on ice for 20 minutes.
(§2) Trophozoite viability IC50determination
(§3) Giardia assays: 10 μL giardia trophozoites in growth medium were plated at a density of 10,000 cells/well in sterile 96-well black clear bottom assay plates. Fumagillin and fumagillol derivatives were 1:3 serially diluted from a 1 μM DMSO stock solution and then 100 μL/well were transferred in duplicate to the assay wells. Metronidazole (control) was 1:3 serially diluted in growth medium from a 100 μM stock solution in DMSO. The assay plates were placed in a BD GasPak™ EZ Container System (BD Diagnostics) to create an anaerobic growth environment. The sealed containers were incubated at 37° C. for 72 hr. Following incubation, 70 μL/well of the ATPLite reagent (PerkinElmer) was added to the assay plates for one-step lysis and ATP level detection. The luminescent signals of the assay plates were measured on an EnSpire 2300 plate reader (PerkinElmer). Concentration response titration points for each compound were fitted to a 4-parameters logistic nonlinear regression model using KaleidaGraph, yielding the IC50value and standard error (SE).

G. lamblia GS = assay: as above; assay type: cell-based; settings: Giardia duodenalis, read-out: Cell viability values Mean IC50 (nM) G. lamblia GS
Protocol: as §1, §2, §3

Recombinant human MetAP2 = biological target: T1, Recombinant human MetAP2 (Homo sapiens, UniProt P50579); assay: MetAP2 fluorescence assay; assay type: biochemical; settings: recombinant human MetAP2, H-Met-Gly-Pro-AMC substrate
T1 construct: purchased Bio-Techne/R&D systems
Protocol: MetAP2 Fluorescence Assay
Recombinant human MetAP2 (Bio-Techne/R&D systems) was diluted to 10 μg/mL in the assay buffer (50 mM HEPES, 0.1 mM CoCl2, 100 mM NaCl, pH 7.5). The substrate, H-Met-Gly-Pro-AMC (Bio-Techne/R&D systems), was diluted to 500 μM with 2 μg/mL of the coupling enzyme, recombinant human dipeptidyl peptidase-4 (Bio-Techne/R&D systems), in assay buffer. 50 μL of 10 μg/mL recombinant human METAP2 were loaded into a flat-bottom black 96-well plate (Greiner Bio), and the reaction was initiated by adding 50 μL of the substrate/dipeptidyl peptidase-4 mixture. The reaction mixture was incubated at room temperature for 10 minutes, and the fluorescence was measured for 5 minutes at excitation and emission wavelengths of 380 nm and 460 nm, respectively, in kinetic mode. For IC50determination, 0.5 μL inhibitor solution was added to the reaction mixture. The reaction rates were used to calculate IC50with KaleidaGraph.

E. histolytica HM1: IMSS = assay: Trophozoite viability IC50 determination, Amebae assay (ATPLite); assay type: cell-based; settings: Entamoeba histolytica, read-out: Cell viability values Mean IC50 (nM) E. histolytica HM1: IMSS
Protocol: as §1, §2, §3
Amebae assays: The protocol is identical to that described above except that the trophozoites were plated at a density of 5000 cells/well because of their larger size.

[1] = trophozoites, 72 hr, anaerobic, ATP level

T1 sequence (P50579 whole entry): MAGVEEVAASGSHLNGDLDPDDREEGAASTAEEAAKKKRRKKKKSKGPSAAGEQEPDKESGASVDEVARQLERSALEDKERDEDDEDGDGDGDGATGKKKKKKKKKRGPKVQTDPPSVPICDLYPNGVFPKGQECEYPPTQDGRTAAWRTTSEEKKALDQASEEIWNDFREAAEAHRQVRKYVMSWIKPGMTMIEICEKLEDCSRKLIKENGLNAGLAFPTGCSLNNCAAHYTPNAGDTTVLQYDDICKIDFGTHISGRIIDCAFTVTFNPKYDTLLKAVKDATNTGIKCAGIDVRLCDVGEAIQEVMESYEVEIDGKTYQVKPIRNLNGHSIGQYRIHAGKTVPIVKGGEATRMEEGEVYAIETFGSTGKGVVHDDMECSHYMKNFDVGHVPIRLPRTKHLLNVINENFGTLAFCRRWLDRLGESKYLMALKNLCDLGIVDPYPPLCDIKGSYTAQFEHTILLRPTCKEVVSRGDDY

Structure (SMILES) | IC50 (G. lamblia WB; 72 h) [nM] | IC50 (G. lamblia GS; 72 h) [nM] | IC50 (Recombinant human MetAP2) [µM] | IC50 (E. histolytica HM1: IMSS; 72 h) [nM] | IC50 (G. lamblia WB; [1]) [nM] | IC50 (G. lamblia GS; [1]) [nM] | IC50 (E. histolytica HM1: IMSS; [1]) [nM]
CO[C@@H]1[C@H](OC(=O)Nc2cc(C#N)cc(B(O)O)c2)CC[C@]2(CO2)[C@H]1[C@@]1(C)O[C@@H]1CC=C(C)C [No 25] | 101 to 1000 | 101 to 1000 | < 0.01 | > 1000 | – | – | –
CO[C@@H]1[C@H](OC(=O)Nc2cc(C)cc(B(O)O)c2)CC[C@]2(CO2)[C@H]1[C@@]1(C)O[C@@H]1CC=C(C)C [No 28] | 101 to 1000 | 10.1 to 100 | < 0.01 | 101 to 1000 | – | – | –
CO[C@@H]1[C@H](OC(=O)NCc2cccc(B(O)O)c2)CC[C@]2(CO2)[C@H]1[C@@]1(C)O[C@@H]1CC=C(C)C [No 29] | 101 to 1000 | 101 to 1000 | < 0.01 | 101 to 1000 | – | – | –
CO[C@@H]1[C@H](OC(=O)NCc2ccc(B(O)O)cc2)CC[C@]2(CO2)[C@H]1[C@@]1(C)O[C@@H]1CC=C(C)C [No 30] | 101 to 1000 | 101 to 1000 | < 0.01 | 101 to 1000 | – | – | –
CO[C@@H]1[C@H](OC(=O)NCc2cc(F)ccc2B(O)O)CC[C@]2(CO2)[C@H]1[C@@]1(C)O[C@@H]1CC=C(C)C [No 31] | 101 to 1000 | 101 to 1000 | < 0.01 | > 1000 | – | – | –
CO[C@@H]1[C@H](OC(=O)Nc2cc(B(O)O)cc([N+](=O)[O-])c2)CC[C@]2(CO2)[C@H]1[C@@]1(C)O[C@@H]1CC=C(C)C [No 33] | > 1000 | 101 to 1000 | < 0.01 | > 1000 | – | – | –
CO[C@@H]1[C@H](OC(=O)Nc2ccc(F)c(F)c2B(O)O)CC[C@]2(CO2)[C@H]1[C@@]1(C)O[C@@H]1CC=C(C)C [No 34] | – | – | < 0.01 | – | > 1000 | 101 to 1000 | > 1000
CO[C@@H]1[C@H](OC(=O)Nc2c(F)cccc2B(O)O)CC[C@]2(CO2)[C@H]1[C@@]1(C)O[C@@H]1CC=C(C)C [No 35] | – | – | < 0.01 | – | > 1000 | 101 to 1000 | > 1000
CO[C@@H]1[C@H](OC(=O)Nc2ccncc2B(O)O)CC[C@]2(CO2)[C@H]1[C@@]1(C)O[C@@H]1CC=C(C)C [No 37] | > 1000 | 10.1 to 100 | < 0.01 | > 1000 | – | – | –
CO[C@@H]1[C@H](OC(=O)Nc2ccc3sc(B(O)O)cc3c2)CC[C@]2(CO2)[C@H]1[C@@]1(C)O[C@@H]1CC=C(C)C [No 38] | > 1000 | > 1000 | < 0.01 | > 1000 | – | – | –
CO[C@@H]1[C@H](OC(=O)Nc2csc(B(O)O)c2)CC[C@]2(CO2)[C@H]1[C@@]1(C)O[C@@H]1CC=C(C)C [No 40] | > 1000 | 101 to 1000 | < 0.01 | > 1000 | – | – | –
CO[C@@H]1[C@H](OC(=O)N2CCc3cc(B(O)O)cnc3C2)CC[C@]2(CO2)[C@H]1[C@@]1(C)O[C@@H]1CC=C(C)C [No 41] | 101 to 1000 | 10.1 to 100 | < 0.01 | > 1000 | – | – | –
CO[C@@H]1[C@H](OC(=O)NCc2c(F)cc(B(O)O)cc2F)CC[C@]2(CO2)[C@H]1[C@@]1(C)O[C@@H]1CC=C(C)C [No 43] | > 1000 | 101 to 1000 | < 0.01 | > 1000 | – | – | –
CO[C@@H]1[C@H](OC(=O)N2CCc3cc(B(O)O)ccc3C2)CC[C@]2(CO2)[C@H]1[C@@]1(C)O[C@@H]1CC=C(C)C [No 44] | > 1000 | 10.1 to 100 | < 0.01 | > 1000 | – | – | –
CO[C@@H]1[C@H](OC(=O)Nc2cccc(B(O)O)c2Cl)CC[C@]2(CO2)[C@H]1[C@@]1(C)O[C@@H]1CC=C(C)C [No 45] | > 1000 | 101 to 1000 | < 0.01 | > 1000 | – | – | –
CO[C@@H]1[C@H](OC(=O)Nc2c(B(O)O)ccnc2Cl)CC[C@]2(CO2)[C@H]1[C@@]1(C)O[C@@H]1CC=C(C)C [No 47] | > 1000 | 101 to 1000 | < 0.01 | > 1000 | – | – | –
CO[C@@H]1[C@H](OC(=O)NC(CF)c2ccc(B(O)O)cc2)CC[C@]2(CO2)[C@H]1[C@@]1(C)O[C@@H]1CC=C(C)C (stereo partly drawn) [No 48] | > 1000 | 101 to 1000 | < 0.01 | > 1000 | – | – | –
CO[C@@H]1[C@H](OC(=O)Nc2cc(B(O)O)c3occc3c2)CC[C@]2(CO2)[C@H]1[C@@]1(C)O[C@@H]1CC=C(C)C [No 49] | 101 to 1000 | 10.1 to 100 | < 0.01 | > 1000 | – | – | –
CO[C@@H]1[C@H](OC(=O)Nc2cc(B(O)O)cc(F)n2)CC[C@]2(CO2)[C@H]1[C@@]1(C)O[C@@H]1CC=C(C)C [No 50] | > 1000 | 10.1 to 100 | < 0.01 | > 1000 | – | – | –
CO[C@@H]1[C@H](OC(=O)N2CCOc3c(B(O)O)cccc32)CC[C@]2(CO2)[C@H]1[C@@]1(C)O[C@@H]1CC=C(C)C [No 51] | 101 to 1000 | < 10 | < 0.01 | 101 to 1000 | – | – | –
CO[C@@H]1[C@H](OC(=O)N2CCC(B(O)O)CC2)CC[C@]2(CO2)[C@H]1[C@@]1(C)O[C@@H]1CC=C(C)C [No 52] | 101 to 1000 | 10.1 to 100 | < 0.01 | > 1000 | – | – | –
CO[C@@H]1[C@H](OC(=O)N2CC=C(B(O)O)CC2)CC[C@]2(CO2)[C@H]1[C@@]1(C)O[C@@H]1CC=C(C)C [No 53] | > 1000 | 101 to 1000 | < 0.01 | > 1000 | – | – | –
CO[C@@H]1[C@H](OC(=O)N(C)c2cc(B(O)O)c3occc3c2)CC[C@]2(CO2)[C@H]1[C@@]1(C)O[C@@H]1CC=C(C)C [No 54] | > 1000 | 101 to 1000 | < 0.01 | > 1000 | – | – | –
CO[C@@H]1[C@H](OC(=O)NCc2ccc(B(O)O)o2)CC[C@]2(CO2)[C@H]1[C@@]1(C)O[C@@H]1CC=C(C)C [No 55] | > 1000 | 101 to 1000 | < 0.01 | > 1000 | – | – | –
CO[C@@H]1[C@H](OC(=O)N2CCc3cc(B(O)O)ccc32)CC[C@]2(CO2)[C@H]1[C@@]1(C)O[C@@H]1CC=C(C)C [No 58] | > 1000 | 101 to 1000 | < 0.01 | > 1000 | – | – | –
CO[C@@H]1[C@H](OC(=O)NCCCB(O)O)CC[C@]2(CO2)[C@H]1[C@@]1(C)O[C@@H]1CC=C(C)C [No 59] | > 1000 | > 1000 | < 0.01 | > 1000 | – | – | –
CO[C@@H]1[C@H](OC(=O)N2CCCC2B(O)O)CC[C@]2(CO2)[C@H]1[C@@]1(C)O[C@@H]1CC=C(C)C (stereo partly drawn) [No 60] | > 1000 | 10.1 to 100 | < 0.01 | > 1000 | – | – | –
CO[C@@H]1[C@H](OC(=O)Nc2ccc(B(O)O)c(C(C)C)c2)CC[C@]2(CO2)[C@H]1[C@@]1(C)O[C@@H]1CC=C(C)C [No 62] | > 1000 | 101 to 1000 | < 0.01 | > 1000 | – | – | –
CO[C@@H]1[C@H](OC(=O)NCCB(O)O)CC[C@]2(CO2)[C@H]1[C@@]1(C)O[C@@H]1CC=C(C)C [No 63] | 101 to 1000 | 10.1 to 100 | < 0.01 | 101 to 1000 | – | – | –
CO[C@@H]1[C@H](OC(=O)Nc2ccc(Cl)c(B(O)O)c2F)CC[C@]2(CO2)[C@H]1[C@@]1(C)O[C@@H]1CC=C(C)C [No 64] | – | – | < 0.01 | – | > 1000 | 101 to 1000 | > 1000
